Assay results taken from US20080009546A1 (Chevron U.S.A. Inc., priority 2005, published 2008).

What was measured:
NMDA receptor = test: Whole-cell voltage-clamp recordings of NMDA evoked currents in hypocretin neurons (hypothalamic slices); format: cell-based, mouse
[1] = test system: primary neurons from rat cerebral cortex; test: NMDA-induced LDH release assay in primary cortical neurons (neuroprotection); format: cell-based; design: Total LDH (Avg): unit not given here
Procedure, shortened: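 Fetal rat (E16–E18) cortical neurons on mouse astroglial feeder layers, fed growth medium/neurobasal+B27 (1:1), used after 11–14 days. Treatments given in Locke's buffer pH 7.4 for 15 min, then cells washed; 24 h later percent LDH released = 100×secreted/(total+secreted), tetrazolium readout.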

C57/BL6 male mice [2] = test: Pentylenetetrazol (PTZ)-induced seizure/death model; format: in vivo, mouse; conditions: for # of deaths within 30 min: 6 mice; for # of deaths within 30 min / PTZ-induced death: PTZ 100 mg/kg; for PTZ-induced death: 30 min observation
Description: Although the protection against death is the key endpoint, other effects of the compounds on PTZ-induced seizures were also assessed using multiple parameters. For the mice that did die within the 30 minute observation window, the time of death was also compared. […] The seizure occurrence rate, onset time and number of level 3 (L3) seizure (repetitive seizures but the animal can still stand) and level 4 (L4) seizure (repetitive seizures and the animal loses righting) are also analyzed. The MDT compound (30 mg/kg) treated groups show a certain degree of improvement compared to control. No data from MK801 or memantine were included because the seizures occurring under these treatments are totally different from the control or MDT injected groups due to side effects (“high jumping”).

C57/BL6 male mice [3] = test: Rotarod test (balance and coordination, side effects); conditions: mouse, in vivo
Description: The side effects of the compounds was primarily evaluated using the rotarod test, which mainly assesses the balancing and coordination of mice. The comparisons were made on fall time of the mice between the first measure (pre-treatment) and second measure taken 20 min after the drug/vehicle injection in the same group (paired t-test). […] Comparisons of the rotatod fall times after drug/vehicle dosing were made between drug treatment and control groups (unpaired t-test).

[4] = NMDA 300 uM + Memantine 50 uM, Plate #4, poly-lysine-coated rat neurons, GM/NB + B-27 fed, 24 hour incubation
[5] = NMDA 300 uM + Memantine 50 uM, Plate #5, astrocyte-coated rat neurons, GM fed, 24 hour incubation
[6] = NMDA 300 uM + Memantine 50 uM, astrocyte-coated rat neurons, GM/NB + B-27 fed, 24 hour incubation
[7] = NMDA 500 μM + Memantine 10 μM, astrocyte-coated rat neurons, GM/NB + B-27 fed, 21 hour incubation
[8] = NMDA 500 uM + Memantine 10 uM, poly-lysine-coated rat neurons, GM/NB + B-27 fed, 40 hour incubation
[9] = NMDA 500 μM + Memantine 100 μM, astrocyte-coated rat neurons, GM/NB + B-27 fed, 21 hour incubation
[10] = NMDA 500 uM + Memantine 100 uM, poly-lysine-coated rat neurons, GM/NB + B-27 fed, 40 hour incubation

Question: `CC12CC3CC(C)(C1)CC(N)(C3)C2` [memantine, 1-amino-3,5-dimethyladamantane, reference compound] was tested. Which “reversibility of inhibition of NMDA evoked currents upon washout” value (NMDA receptor) did it give?
Answer: reversible

Question: What about the “inhibition of the peak amplitude of NMDA evoked currents” value (NMDA receptor; 10 µM) of the same molecule?
Answer: 41.3±10%

Question: And the “inhibition of the peak amplitude of NMDA evoked currents” value (NMDA receptor; 30 µM)?
Answer: 52.7±7.4%

Question: What about the “% (Control Wash = 100)” value [1, 4] of the same molecule?
Answer: 166%

Question: And the “Secreted LDH (Avg)” value [1, 4]?
Answer: 0.75

Question: What about the “Secreted/(total + secreted) (Avg)” value [1, 4] of the same molecule?
Answer: 18.20

Question: And the “Total LDH (Avg)” value [1, 4]?
Answer: 3.36

Question: And the “% (Control Wash = 100)” value [1, 5]?
Answer: 106%

Question: And the “Secreted LDH (Avg)” value [1, 5]?
Answer: 0.20

Question: What about the “Secreted/(total + secreted) (Avg)” value [1, 5] of the same molecule?
Answer: 6.20

Question: And the “Total LDH (Avg)” value [1, 5]?
Answer: 3.06

Question: What about the “% (Control Wash = 100)” value [1, 6] of the same molecule?
Answer: 272%

Question: And the “Secreted LDH (Avg)” value [1, 6]?
Answer: 0.83

Question: And the “Secreted/(total + secreted) (Avg)” value [1, 6]?
Answer: 19.63

Question: And the “Total LDH (Avg)” value [1, 6]?
Answer: 3.41

Question: What about the “% (Control Wash = 100)” value [1, 7] of the same molecule?
Answer: 129%

Question: What about the “Secreted LDH (Avg)” value [1, 7] of the same molecule?
Answer: 0.47

Question: And the “Secreted/(total + secreted) (Avg)” value [1, 7]?
Answer: 10.73

Question: What about the “Total LDH (Avg)” value [1, 7] of the same molecule?
Answer: 3.89

Question: What about the “% (Control Wash = 100)” value [1, 8] of the same molecule?
Answer: 111%

Question: And the “Secreted LDH (Avg)” value [1, 8]?
Answer: 0.41

Question: What about the “Secreted/(total + secreted) (Avg)” value [1, 8] of the same molecule?
Answer: 12.77

Question: What about the “Total LDH (Avg)” value [1, 8] of the same molecule?
Answer: 2.80

Question: What about the “% (Control Wash = 100)” value [1, 9] of the same molecule?
Answer: 114%

Question: And the “Secreted LDH (Avg)” value [1, 9]?
Answer: 0.42

Question: What about the “Secreted/(total + secreted) (Avg)” value [1, 9] of the same molecule?
Answer: 9.47

Question: What about the “Total LDH (Avg)” value [1, 9] of the same molecule?
Answer: 4.02

Question: And the “% (Control Wash = 100)” value [1, 10]?
Answer: 156%

Question: And the “Secreted LDH (Avg)” value [1, 10]?
Answer: 0.52

Question: What about the “Secreted/(total + secreted) (Avg)” value [1, 10] of the same molecule?
Answer: 17.86

Question: And the “Total LDH (Avg)” value [1, 10]?
Answer: 2.39

Question: What about the Mortality rate (C57/BL6 male mice [2]; 10 mg/kg i.p.) of the same molecule?
Answer: 0.17

Question: And the “# of deaths within 30 min” value (C57/BL6 male mice [2]; 10 mg/kg i.p.)?
Answer: 1

Question: And the Mortality rate (C57/BL6 male mice [2]; 30 mg/kg i.p.)?
Answer: 0

Question: What about the “# of deaths within 30 min” value (C57/BL6 male mice [2]; 30 mg/kg i.p.) of the same molecule?
Answer: 0

Question: And the PTZ-induced death (C57/BL6 male mice [2]; 10 and 30 mg/kg i.p.)?
Answer: dose-dependent reduction in death

Question: What about the PTZ-induced death (C57/BL6 male mice [2]; high dose 30 mg/kg i.p.) of the same molecule?
Answer: full protection

Question: And the “rotarod fall time, pre-treatment vs 20 min after injection” value (C57/BL6 male mice [3])?
Answer: loss of performance

Question: And the “hyperactivity (side effect)” value (C57/BL6 male mice [3]; ip, 30 mg/kg)?
Answer: observed

Question: And the “rotarod performance after dosing vs. control” value (C57/BL6 male mice [3]; ip, 30 mg/kg)?
Answer: statistically significant decreases in rotarod performance
